Common to all, as to format: in vivo
Experiment [1] concerns Eclipta prostrata. Put plainly: Indoor herbicide activity determination, post-emergence (stem and leaf spray at 2-4 leaf stage). As to conditions: 504 h, determined 21 days later, read-out: Inhibition rate of fresh weight, Eclipta prostrata; for inhibition at 60 g/ha: 60 g a.i./ha; for inhibition at 30 g/ha: 30 g a.i./ha. An outline of the steps:
(§1)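 Potted weeds in sandy nutrient soil (pH 6.1, 1% organic matter) were grown in a constant-temperature illuminated room to the 2-4 leaf stage, then given a stem-and-leaf spray. Plants went back to the culture room once the spray had dried in shade. At 21 days, fresh weight inhibition % was calculated relative to untreated control plants.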

In experiment [2] the test system is Cyperus iria. Described as above. As to conditions: 504 h, determined 21 days later, read-out: Inhibition rate of fresh weight, Cyperus iria; for inhibition at 60 g/ha: 60 g a.i./ha; for inhibition at 30 g/ha: 30 g a.i./ha. An outline of the steps: as §1
In experiment [3] the test system is Digitaria sanguinalis. The experiment is described as above. The settings on record: 504 h, determined 21 days later, read-out: Inhibition rate of fresh weight, Digitaria sanguinalis; for inhibition at 60 g/ha: 60 g a.i./ha; for inhibition at 30 g/ha: 30 g a.i./ha. The method in brief:
as §1

Experiment [4] relates to Eclipta prostrata. Put plainly: Indoor herbicide activity determination, Seed Treatment; pre-emergence (soil spray). The settings on record: read-out: Herbicidal activities (inhibition rate) Eclipta prostrata; for inhibition at 60 g/ha: 60 g a.i./ha. An outline of the steps: (§2)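 Weed seeds sown in 7 cm pots of sandy nutrient soil (pH 6.1, 1% organic matter), kept 24 h in a constant-temperature lit room, then soil sprayed by traveling spray tower (flow 390 mL/min). Fresh-weight inhibition % versus untreated controls scored 21 days later.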

A further experiment relates to Alopecurus myosuroides. The experiment is described as above. The method in brief:
as §2

Experiment [5] has as its system Cyperus iria. Described as above. As to conditions: read-out: Herbicidal activities (inhibition rate) Cyperus iria; for inhibition at 120 g/ha: 120 g a.i./ha; for inhibition at 60 g/ha: 60 g a.i./ha. The method in brief:
as §2

For a further experiment, the system named is Aegilops tauschii. The experiment is described as above. The settings on record: read-out: Herbicidal activities (inhibition rate) Aegilops tauschii; for inhibition at 120 g/ha: 120 g a.i./ha; for inhibition at 60 g/ha: 60 g a.i./ha. The method in brief:
as §2

A further experiment deals with Leptochloa chinensis. The experiment is described as above. An outline of the steps: as §2
In a further experiment the test system is Lolium multiflorum. The description is as above. An outline of the steps:
as §2

The next experiment concerns Eleusine indica. Described as above. An outline of the steps:
as §2

The test system of a further experiment is Alopecurus japonicus. Described as above. The method in brief:
as §2

In experiment [6] the test system is Digitaria sanguinalis. The experiment is described as above. As to conditions: read-out: Herbicidal activities (inhibition rate) Digitaria sanguinalis; for inhibition at 60 g/ha: 60 g a.i./ha. The method in brief:
as §2

One may read the inhibition as the drop in the measured response relative to a control, in per cent.

As to `O=C(N[C@H]1C[C@@H](C(=O)O)C1)C1(C(F)(F)F)CC(c2cc(F)cc(F)c2)=NO1` (mixture of isomers) [I-206], the inhibition at 60 g/ha in the experiment with Eclipta prostrata [1], in the experiment with Cyperus iria [2] and in the experiment with Digitaria sanguinalis [3] was 80 to 100% each time. The inhibition at 120 g/ha in the experiment on Eclipta prostrata [4] (120 g a.i./ha) lay within 60 to 80%; with Cyperus iria [5] it was 80 to 100%; with Aegilops tauschii it was 80 to 100%; with Digitaria sanguinalis [6] (120 g a.i./ha), 80 to 100%. The “Herbicidal activities, Alopecurus myosuroides (inhibition rate class)” value in the experiment on Alopecurus myosuroides (Dosage 240 g a.i./ha) is “A (A indicates that the inhibition rate was greater than or equal to 80% to 100%)”. Further, in the experiment on Leptochloa chinensis (Dosage 240 g a.i./ha), the “Herbicidal activities, Leptochloa chinensis (inhibition rate class)” value is given as “A (A indicates that the inhibition rate was greater than or equal to 80% to 100%)”. Besides, the “Herbicidal activities, Lolium multiflorum (inhibition rate class)” value in the experiment on Lolium multiflorum (Dosage 240 g a.i./ha) was “A (A indicates that the inhibition rate was greater than or equal to 80% to 100%)”. In addition, the “Herbicidal activities, Eleusine indica (inhibition rate class)” value with Eleusine indica (Dosage 240 g a.i./ha) is “A (A indicates that the inhibition rate was greater than or equal to 80% to 100%)”. Also, the “Herbicidal activities, Alopecurus japonicus (inhibition rate class)” value in the experiment on Alopecurus japonicus (Dosage 240 g a.i./ha) is recorded as “A (A indicates that the inhibition rate was greater than or equal to 80% to 100%)”.
`COC(=O)[C@@H]1CC[C@H](NC(=O)[C@@]2(C(F)(F)F)CC(c3cc(F)cc(F)c3)=NO2)C1` [CK3, reference compound]: the inhibition at 30 g/ha in the experiment with Eclipta prostrata [1] was below 20%; in the experiment with Cyperus iria [2] it was 40 to 60%; with Digitaria sanguinalis [3], 40 to 60%. For the same molecule, the inhibition at 60 g/ha in the experiment with Eclipta prostrata [4] is 60 to 80%; with Cyperus iria [5], 40 to 60%; in the experiment with Aegilops tauschii, 40 to 60%; with Digitaria sanguinalis [6] it was 60 to 80%.
On to `COC(=O)[C@H]1CC[C@@H](NC(=O)[C@@]2(C(F)(F)F)CC(c3cc(F)cc(F)c3)=NO2)C1` [CK4, reference compound], for which the inhibition at 30 g/ha with Eclipta prostrata [1] is below 20%; in the experiment on Cyperus iria [2] it was 20 to 40%; in the experiment on Digitaria sanguinalis [3], 20 to 40%. The inhibition at 60 g/ha with Eclipta prostrata [4] is below 20%; with Cyperus iria [5], 40 to 60%; in the experiment on Aegilops tauschii it was below 20%; in the experiment on Digitaria sanguinalis [6], below 20%.
As to `O=C(O)[C@@H]1CC[C@H](NC(=O)[C@@]2(C(F)(F)F)CC(c3cc(F)cc(F)c3)=NO2)C1` [CK5, reference compound], the inhibition at 30 g/ha was below 20% with Eclipta prostrata [1], 40 to 60% with Cyperus iria [2] and 40 to 60% in the experiment with Digitaria sanguinalis [3]. Further, the inhibition at 60 g/ha with Eclipta prostrata [4] lay within 40 to 60%; in the experiment on Cyperus iria [5] it was 60 to 80%; in the experiment with Aegilops tauschii it was 20 to 40%; in the experiment on Digitaria sanguinalis [6] it was 60 to 80%.
For `O=C(O)[C@H]1CC[C@@H](NC(=O)[C@@]2(C(F)(F)F)CC(c3cc(F)cc(F)c3)=NO2)C1` [CK6, reference compound], the inhibition at 30 g/ha was below 20% in the experiment on Eclipta prostrata [1], 20 to 40% with Cyperus iria [2] and 20 to 40% in the experiment with Digitaria sanguinalis [3]. Further, the inhibition at 60 g/ha was below 20% in the experiment with Eclipta prostrata [4], 40 to 60% with Cyperus iria [5], below 20% in the experiment on Aegilops tauschii and below 20% in the experiment with Digitaria sanguinalis [6].
On to `C=CC1(C(=O)N[C@H]2C[C@@H](C(=O)O)C2)CC(c2cc(F)cc(F)c2)=NO1` (stereo partly drawn) [I-1], for which the inhibition at 60 g/ha is 60 to 80% with Eclipta prostrata [1], 80 to 100% in the experiment on Cyperus iria [2] and 80 to 100% in the experiment on Digitaria sanguinalis [3]. Also, the “Herbicidal activities, Alopecurus myosuroides (inhibition rate class)” value with Alopecurus myosuroides (Dosage 240 g a.i./ha) is recorded as “A (A indicates that the inhibition rate was greater than or equal to 80% to 100%)”. For the same molecule, the inhibition at 120 g/ha in the experiment on Cyperus iria [5] and in the experiment with Aegilops tauschii was 80 to 100% throughout. Further, the “Herbicidal activities, Leptochloa chinensis (inhibition rate class)” value in the experiment with Leptochloa chinensis (Dosage 240 g a.i./ha) is recorded as “A (A indicates that the inhibition rate was greater than or equal to 80% to 100%)”. Also, in the experiment on Lolium multiflorum (Dosage 240 g a.i./ha), the “Herbicidal activities, Lolium multiflorum (inhibition rate class)” value was “A (A indicates that the inhibition rate was greater than or equal to 80% to 100%)”. The “Herbicidal activities, Eleusine indica (inhibition rate class)” value in the experiment with Eleusine indica (Dosage 240 g a.i./ha) is given as “A (A indicates that the inhibition rate was greater than or equal to 80% to 100%)”. Further, in the experiment with Alopecurus japonicus (Dosage 240 g a.i./ha), the “Herbicidal activities, Alopecurus japonicus (inhibition rate class)” value is recorded as “A (A indicates that the inhibition rate was greater than or equal to 80% to 100%)”.
Turning to `C=C[C@]1(C(=O)N[C@H]2C[C@@H](C(=O)OC)C2)CC(c2cc(F)cc(F)c2)=NO1` [I-4], the inhibition at 30 g/ha in the experiment on Eclipta prostrata [1] was in the range of 60 to 80%; in the experiment with Cyperus iria [2], 80 to 100%; in the experiment with Digitaria sanguinalis [3], 80 to 100%. Also, the inhibition at 60 g/ha with Eclipta prostrata [4], with Cyperus iria [5] and with Digitaria sanguinalis [6] was 80 to 100% in each case. For the same molecule, the “Herbicidal activities, Alopecurus myosuroides (inhibition rate class)” value in the experiment with Alopecurus myosuroides (Dosage 120 g a.i./ha) is recorded as “A (A indicates that the inhibition rate was greater than or equal to 80% to 100%)”. The “Herbicidal activities, Leptochloa chinensis (inhibition rate class)” value in the experiment on Leptochloa chinensis (Dosage 120 g a.i./ha) is on record as “A (A indicates that the inhibition rate was greater than or equal to 80% to 100%)”. The “Herbicidal activities, Lolium multiflorum (inhibition rate class)” value in the experiment with Lolium multiflorum (Dosage 120 g a.i./ha) is “A (A indicates that the inhibition rate was greater than or equal to 80% to 100%)”. Further, the “Herbicidal activities, Eleusine indica (inhibition rate class)” value in the experiment on Eleusine indica (Dosage 120 g a.i./ha) is recorded as “A (A indicates that the inhibition rate was greater than or equal to 80% to 100%)”. Besides, the “Herbicidal activities, Alopecurus japonicus (inhibition rate class)” value with Alopecurus japonicus (Dosage 120 g a.i./ha) is given as “A (A indicates that the inhibition rate was greater than or equal to 80% to 100%)”.
For the molecule `C=C[C@]1(C(=O)N[C@H]2C[C@@H](C(=O)OCC)C2)CC(c2cc(F)cc(F)c2)=NO1` [I-5], the inhibition at 30 g/ha in the experiment with Eclipta prostrata [1] lay in the range of 40 to 60%; with Cyperus iria [2] it was 80 to 100%; in the experiment on Digitaria sanguinalis [3], 80 to 100%. In addition, in the experiment on Alopecurus myosuroides (Dosage 120 g a.i./ha), the “Herbicidal activities, Alopecurus myosuroides (inhibition rate class)” value was “A (A indicates that the inhibition rate was greater than or equal to 80% to 100%)”. Besides, the figures for the inhibition at 60 g/ha with Cyperus iria [5], in the experiment with Aegilops tauschii and with Digitaria sanguinalis [6] were 60 to 80%, 80 to 100% and 80 to 100%, respectively. For the same molecule, in the experiment with Leptochloa chinensis (Dosage 120 g a.i./ha), the “Herbicidal activities, Leptochloa chinensis (inhibition rate class)” value is given as “A (A indicates that the inhibition rate was greater than or equal to 80% to 100%)”. Also, the “Herbicidal activities, Lolium multiflorum (inhibition rate class)” value in the experiment with Lolium multiflorum (Dosage 120 g a.i./ha) is reported as “A (A indicates that the inhibition rate was greater than or equal to 80% to 100%)”. Besides, the “Herbicidal activities, Eleusine indica (inhibition rate class)” value in the experiment with Eleusine indica (Dosage 120 g a.i./ha) is on record as “A (A indicates that the inhibition rate was greater than or equal to 80% to 100%)”. Further, the “Herbicidal activities, Alopecurus japonicus (inhibition rate class)” value in the experiment on Alopecurus japonicus (Dosage 120 g a.i./ha) is “A (A indicates that the inhibition rate was greater than or equal to 80% to 100%)”.
For `C=C[C@]1(C(=O)N[C@H]2C=C[C@@H](C(=O)OCC(C)C)C2)CC(c2cc(F)cc(C(F)(F)F)c2)=NO1` [I-438], the inhibition at 30 g/ha in the experiment on Eclipta prostrata [1], in the experiment on Cyperus iria [2] and in the experiment on Digitaria sanguinalis [3] was 60 to 80% each time. The inhibition at 60 g/ha with Eclipta prostrata [4] and in the experiment with Cyperus iria [5] was 80 to 100% throughout. Further, the “Herbicidal activities, Leptochloa chinensis (inhibition rate class)” value with Leptochloa chinensis (Dosage 120 g a.i./ha) is “A (A indicates that the inhibition rate was greater than or equal to 80% to 100%)”. Also, the “Herbicidal activities, Eleusine indica (inhibition rate class)” value with Eleusine indica (Dosage 120 g a.i./ha) is “A (A indicates that the inhibition rate was greater than or equal to 80% to 100%)”.
Consider `C=C[C@]1(C(=O)N[C@H]2CO[C@@H](C(=O)O)C2)CC(c2cc(F)cc(F)c2)=NO1` [icafolin, reference compound], for which the inhibition at 30 g/ha is below 20% in the experiment with Eclipta prostrata [1], 40 to 60% in the experiment with Cyperus iria [2] and 40 to 60% in the experiment with Digitaria sanguinalis [3]. The inhibition at 60 g/ha in the experiment on Eclipta prostrata [4] is below 20%; in the experiment with Cyperus iria [5], 20 to 40%; in the experiment on Aegilops tauschii, 40 to 60%; with Digitaria sanguinalis [6], 20 to 40%.
As for `C=CC1(C(=O)NC2COC(C(=O)OC)C2)CC(c2cc(F)cc(F)c2)=NO1` (stereo not drawn) [icafolin-methyl, reference compound], the inhibition at 30 g/ha in the experiment on Eclipta prostrata [1], with Cyperus iria [2] and in the experiment on Digitaria sanguinalis [3] was 40 to 60% each time. Besides, the inhibition at 60 g/ha in the experiment with Eclipta prostrata [4] fell in the range of 40 to 60%; with Cyperus iria [5] it was 20 to 40%; with Aegilops tauschii it was 40 to 60%; in the experiment with Digitaria sanguinalis [6], 20 to 40%.

The values above are taken from EP4722201A1, “3-PHENYLISOXAZOLINE-5-CARBOXAMIDE COMPOUND, AND PREPARATION METHOD THEREFOR, HERBICIDAL COMPOSITION THEREOF AND USE THEREOF” (Jiangsu Flag Chemical Industry Co., Ltd, priority 2023, dated 2024).
